This note sets out measurements from PubChem BioAssay AID330 (DTP/NCI, 2004).

Where “and” joins values, the source holds several entries; their conditions need not be identical. Equal values may be shown once. Toxic doses and inconclusive results are not listed.

The test system of this test is P388 leukemia ip, CD2F1 mice, survival T/C. Description: NCI In Vivo Anticancer Drug Screen. Data for tumor model P388 Leukemia (intraperitoneal) in CD2F1 (CDF1) mice. The note with it: endpoint: median survival time, higher = longer survival. The essentials:
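Mice carrying the transplanted tumor received test compound or vehicle. Survival was recorded in each group, and the value is the treated-group measurement divided by that of the vehicle-treated control group.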

Where [1] appears, read: dose: 50.0 mg/kg/injection, schedule: Q01DX009 (ip), vehicle: Klucel (hydroxypropylcellulose) (HPC).
Setting [2] is: dose: 100.0 mg/kg/injection, schedule: Q01DX009 (ip), vehicle: Klucel (hydroxypropylcellulose) (HPC).
[3] abbreviates: dose: 200.0 mg/kg/injection, schedule: Q01DX009 (ip), vehicle: Klucel (hydroxypropylcellulose) (HPC).
[4] abbreviates: dose: 50.0 mg/kg/injection, schedule: Q01DX005 (ip), vehicle: Klucel (hydroxypropylcellulose) (HPC).
The mark [5] stands for this setting: dose: 100.0 mg/kg/injection, schedule: Q01DX005 (ip), vehicle: Klucel (hydroxypropylcellulose) (HPC).
The mark [6] stands for this setting: dose: 200.0 mg/kg/injection, schedule: Q01DX005 (ip), vehicle: Klucel (hydroxypropylcellulose) (HPC).
The mark [7] stands for this setting: dose: 60.0 mg/kg/injection, schedule: Q01DX005 (ip), vehicle: saline.
[8] abbreviates: dose: 120.0 mg/kg/injection, schedule: Q01DX005 (ip), vehicle: saline.
[9] abbreviates: dose: 240.0 mg/kg/injection, schedule: Q01DX005 (ip), vehicle: saline.

On to `CC(CN1CC(=O)NC(=O)C1)N1CC(=O)NC(=O)C1` (stereo unspecified), for which the T/C is, setting by setting: (dose: 6.48 mg/kg/injection, schedule: Q04DX002 (ip), vehicle: saline) 117 % of control; (dose: 50.0 mg/kg/injection, schedule: Q04DX002 (ip), vehicle: Klucel (hydroxypropylcellulose) (HPC)) 123 % of control; (dose: 64.8 mg/kg/injection, schedule: Q04DX003 (ip), vehicle: saline) 119 % of control; (dose: 77.8 mg/kg/injection, schedule: Q04DX002 (ip), vehicle: saline with Tween-80) 118 % of control; (dose: 180.0 mg/kg/injection, schedule: Q04DX002 (ip), vehicle: saline) 156 % of control; (dose: 180.0 mg/kg/injection, schedule: Q04DX003 (ip), vehicle: saline) 161 % of control. Moreover, the T/C runs as follows: (dose: 200.0 mg/kg/injection, schedule: Q04DX002 (ip), vehicle: Klucel (hydroxypropylcellulose) (HPC)) 153 % of control and 163 % of control; (dose: 216.0 mg/kg/injection, schedule: Q04DX002 (ip), vehicle: saline with Tween-80) 152 % of control; (dose: 300.0 mg/kg/injection, schedule: Q04DX002 (ip), vehicle: saline) 174 % of control; (dose: 300.0 mg/kg/injection, schedule: Q04DX003 (ip), vehicle: saline) 214 % of control and 217 % of control; (dose: 360.0 mg/kg/injection, schedule: Q04DX002 (ip), vehicle: saline with Tween-80) 195 % of control; (dose: 400.0 mg/kg/injection, schedule: Q04DX002 (ip), vehicle: Klucel (hydroxypropylcellulose) (HPC)) 223 % of control and 94 % of control. In addition, the T/C was 100 % of control (dose: 500.0 mg/kg/injection, schedule: Q04DX002 (ip), vehicle: saline); 118 % of control and 219 % of control (dose: 500.0 mg/kg/injection, schedule: Q04DX003 (ip), vehicle: saline); 213 % of control (dose: 600.0 mg/kg/injection, schedule: Q04DX002 (ip), vehicle: saline with Tween-80).

Consider `CCOC(=O)c1ccccc1SC(C[N+](=O)[O-])c1ccccc1` (stereo unspecified), for which the T/C is, setting by setting: under setting [1], 105 % of control; under setting [2], 110 % of control; under setting [3], 110 % of control.

On to `COc1ccc(C[C@H]2c3c(cc4c(c3OC)OCO4)CCN2C)c(CO)c1OC`, for which the T/C runs as follows: (dose: 9.38 mg/kg/injection, schedule: Q01DX005 (ip), vehicle: Klucel (hydroxypropylcellulose) (HPC)) 100 % of control; (dose: 18.75 mg/kg/injection, schedule: Q01DX005 (ip), vehicle: Klucel (hydroxypropylcellulose) (HPC)) 98 % of control; (dose: 37.5 mg/kg/injection, schedule: Q01DX005 (ip), vehicle: Klucel (hydroxypropylcellulose) (HPC)) 94 % of control; (dose: 75.0 mg/kg/injection, schedule: Q01DX005 (ip), vehicle: Klucel (hydroxypropylcellulose) (HPC)) 99 % of control.

As to `S=c1o[nH]c(-c2ccccc2)c1C=Nc1ccccc1`, the T/C is 102 % of control (dose: 60.0 mg/kg/injection, schedule: Q01DX005 (ip), vehicle: saline with Tween-80); 93 % of control (dose: 120.0 mg/kg/injection, schedule: Q01DX005 (ip), vehicle: saline with Tween-80); 94 % of control (dose: 240.0 mg/kg/injection, schedule: Q01DX005 (ip), vehicle: saline with Tween-80).

`Cc1ccc(S(=O)(=O)SC(C)(C)C)cc1`: the T/C runs as follows: under setting [4], 112 % of control; under setting [5], 112 % of control; under setting [6], 112 % of control.

On to `COc1cccc(/C=N/NC(=O)c2c(-c3ccccc3)noc2C)c1O`, for which the T/C (dose: 50.0 mg/kg/injection, schedule: Q01DX009 (ip), vehicle: saline with Tween-80) is 99 % of control; the T/C (dose: 100.0 mg/kg/injection, schedule: Q01DX009 (ip), vehicle: saline with Tween-80) is 100 % of control; the T/C (dose: 200.0 mg/kg/injection, schedule: Q01DX009 (ip), vehicle: saline with Tween-80) was 110 % of control.

For `O=[N+]([O-])c1cnc(Sc2ncccn2)c([N+](=O)[O-])c1`, the T/C runs as follows: (dose: 3.12 mg/kg/injection, schedule: Q01DX009 (ip), vehicle: saline) 96 % of control; (dose: 3.12 mg/kg/injection, schedule: Q01DX009 (ip), vehicle: suspension in saline) 107 % of control; (dose: 6.25 mg/kg/injection, schedule: Q01DX009 (ip), vehicle: saline) 96 % of control; (dose: 6.25 mg/kg/injection, schedule: Q01DX009 (ip), vehicle: suspension in saline) 104 % of control; (dose: 12.5 mg/kg/injection, schedule: Q01DX009 (ip), vehicle: saline) 99 % of control; (dose: 12.5 mg/kg/injection, schedule: Q01DX009 (ip), vehicle: suspension in saline) 98 % of control and 108 % of control. In addition, the T/C was 105 % of control (dose: 25.0 mg/kg/injection, schedule: Q01DX009 (ip), vehicle: suspension in saline); 99 % of control and 107 % of control (dose: 50.0 mg/kg/injection, schedule: Q01DX009 (ip), vehicle: suspension in saline).

For the compound `COc1cccc2c1CCC1=CC(=O)CCC12C` (stereo unspecified), the T/C under setting [4] is 102 % of control, the T/C under setting [5] is 96 % of control and the T/C under setting [6] was 93 % of control.

On to `C=C(Cl)CNc1ccccc1C(=O)O`, for which the T/C is, setting by setting: (dose: 25.0 mg/kg/injection, schedule: Q04DX003 (ip), vehicle: Klucel (hydroxypropylcellulose) (HPC)) 109 % of control and 97 % of control; (dose: 50.0 mg/kg/injection, schedule: Q04DX003 (ip), vehicle: Klucel (hydroxypropylcellulose) (HPC)) 109 % of control and 110 % of control; (dose: 100.0 mg/kg/injection, schedule: Q04DX003 (ip), vehicle: Klucel (hydroxypropylcellulose) (HPC)) 103 % of control and 95 % of control; (dose: 200.0 mg/kg/injection, schedule: Q04DX003 (ip), vehicle: Klucel (hydroxypropylcellulose) (HPC)) 94 % of control.

As to `NS(=O)(=O)c1ccc(NC(=O)CN(C(=O)C(F)(F)F)C2CCCC2)cc1`, the T/C is 113 % of control under setting [1], 109 % of control under setting [2] and 109 % of control under setting [3].

Take `C/C(=N\NC(=S)SCc1ccccc1)c1ccccn1`: the T/C is, setting by setting: (dose: 3.12 mg/kg/injection, schedule: Q01DX009 (ip), vehicle: Klucel (hydroxypropylcellulose) (HPC)) 108 % of control; (dose: 6.25 mg/kg/injection, schedule: Q01DX009 (ip), vehicle: Klucel (hydroxypropylcellulose) (HPC)) 103 % of control and 110 % of control.

`NC(=O)CC1(O)c2ccccc2C(=O)c2ccccc21`: the T/C was 97 % of control (dose: 3.13 mg/kg/injection, schedule: Q01DX009 (ip), vehicle: clinical formulation); 104 % of control (dose: 6.25 mg/kg/injection, schedule: Q01DX009 (ip), vehicle: clinical formulation); 97 % of control (dose: 12.5 mg/kg/injection, schedule: Q01DX009 (ip), vehicle: clinical formulation); 94 % of control (dose: 25.0 mg/kg/injection, schedule: Q01DX009 (ip), vehicle: clinical formulation); 97 % of control (dose: 50.0 mg/kg/injection, schedule: Q01DX009 (ip), vehicle: clinical formulation); 100 % of control (dose: 100.0 mg/kg/injection, schedule: Q01DX009 (ip), vehicle: clinical formulation).

In the case of `COC(=O)c1cccc2c(Br)cc3ccccc3c12`, the T/C is 95 % of control (dose: 150.0 mg/kg/injection, schedule: Q04DX003 (ip), vehicle: Klucel (hydroxypropylcellulose) (HPC)) and 91 % of control (dose: 300.0 mg/kg/injection, schedule: Q04DX003 (ip), vehicle: Klucel (hydroxypropylcellulose) (HPC)).

For `CC(C)N=C1CCCC1C(=S)SSC(=S)C1CCCC1=NC(C)C` (stereo unspecified), the T/C under setting [1] is 99 % of control, the T/C under setting [2] was 99 % of control and the T/C under setting [3] was 100 % of control.

As to `COCc1cn[nH]n1`, the T/C is, setting by setting: under setting [7], 100 % of control; under setting [8], 99 % of control; under setting [9], 104 % of control.

Take `CCn1c2ccc(N=C=O)cc2c2c3[nH]c(=O)c4cccn4c3ccc21`: the T/C is, setting by setting: (dose: 50.0 mg/kg/injection, schedule: Q01DX005 (ip), vehicle: saline with Tween-80) 95 % of control; (dose: 100.0 mg/kg/injection, schedule: Q01DX005 (ip), vehicle: saline with Tween-80) 88 % of control; (dose: 200.0 mg/kg/injection, schedule: Q01DX005 (ip), vehicle: saline with Tween-80) 86 % of control.

For the compound `CCC(=O)Nc1c(O)c(Br)c(NC(=O)CC)c(O)c1Br`, the T/C reads like this: under setting [7], 104 % of control; under setting [8], 100 % of control; under setting [9], 105 % of control.
